The text below walks through data of publication PMC3914206.

SMILES strings stand for the structures.

Holding throughout (format): binding
Common to all, as to details: Compound Concentration 10 µM

In assay [1] the target is T1, panel of 442 kinases (Homo sapiens, UniProt Q04912).
T1 construct: purchased KINOMEscan
An excerpt: (§1) We assessed the selectivity of members of this scaffold using the KINOMEscan methodology across a near comprehensive panel of 442 kinases [[18,27]].

In assay [2] the target is T2, panel of 442 kinases (Homo sapiens, UniProt O76039).
T2 construct: purchased KINOMEscan
T2 sequence (O76039 1-960): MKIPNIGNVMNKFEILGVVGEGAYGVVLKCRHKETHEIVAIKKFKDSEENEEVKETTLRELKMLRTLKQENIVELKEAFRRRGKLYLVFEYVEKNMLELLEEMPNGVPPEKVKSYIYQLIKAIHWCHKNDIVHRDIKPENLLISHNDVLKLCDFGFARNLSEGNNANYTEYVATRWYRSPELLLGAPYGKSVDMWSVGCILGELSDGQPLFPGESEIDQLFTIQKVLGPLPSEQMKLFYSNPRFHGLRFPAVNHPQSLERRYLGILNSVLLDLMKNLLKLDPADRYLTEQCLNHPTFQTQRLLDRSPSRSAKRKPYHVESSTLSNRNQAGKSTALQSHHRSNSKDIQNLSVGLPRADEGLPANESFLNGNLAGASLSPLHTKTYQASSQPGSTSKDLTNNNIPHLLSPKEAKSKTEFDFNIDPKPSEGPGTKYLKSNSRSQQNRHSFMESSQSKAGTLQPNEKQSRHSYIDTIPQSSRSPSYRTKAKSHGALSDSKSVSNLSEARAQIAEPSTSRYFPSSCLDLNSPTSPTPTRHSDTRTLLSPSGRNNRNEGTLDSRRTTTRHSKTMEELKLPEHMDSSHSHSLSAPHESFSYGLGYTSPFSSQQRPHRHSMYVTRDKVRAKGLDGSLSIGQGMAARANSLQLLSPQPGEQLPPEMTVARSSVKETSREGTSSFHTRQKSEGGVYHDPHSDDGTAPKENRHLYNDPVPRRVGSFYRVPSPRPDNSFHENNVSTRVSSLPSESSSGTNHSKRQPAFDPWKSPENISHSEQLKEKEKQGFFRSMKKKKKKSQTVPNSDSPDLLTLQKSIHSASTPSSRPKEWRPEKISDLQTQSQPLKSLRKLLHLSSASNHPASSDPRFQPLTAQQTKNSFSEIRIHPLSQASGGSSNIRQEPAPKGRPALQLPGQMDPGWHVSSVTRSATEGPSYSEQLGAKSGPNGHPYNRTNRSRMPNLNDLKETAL
From the text: as §1

Assay [3] concerns the target T3, panel of 442 kinases (Homo sapiens, UniProt Q9UIK4).
T3 construct: purchased KINOMEscan
From the text: as §1

T1 sequence (Q04912 25-1400): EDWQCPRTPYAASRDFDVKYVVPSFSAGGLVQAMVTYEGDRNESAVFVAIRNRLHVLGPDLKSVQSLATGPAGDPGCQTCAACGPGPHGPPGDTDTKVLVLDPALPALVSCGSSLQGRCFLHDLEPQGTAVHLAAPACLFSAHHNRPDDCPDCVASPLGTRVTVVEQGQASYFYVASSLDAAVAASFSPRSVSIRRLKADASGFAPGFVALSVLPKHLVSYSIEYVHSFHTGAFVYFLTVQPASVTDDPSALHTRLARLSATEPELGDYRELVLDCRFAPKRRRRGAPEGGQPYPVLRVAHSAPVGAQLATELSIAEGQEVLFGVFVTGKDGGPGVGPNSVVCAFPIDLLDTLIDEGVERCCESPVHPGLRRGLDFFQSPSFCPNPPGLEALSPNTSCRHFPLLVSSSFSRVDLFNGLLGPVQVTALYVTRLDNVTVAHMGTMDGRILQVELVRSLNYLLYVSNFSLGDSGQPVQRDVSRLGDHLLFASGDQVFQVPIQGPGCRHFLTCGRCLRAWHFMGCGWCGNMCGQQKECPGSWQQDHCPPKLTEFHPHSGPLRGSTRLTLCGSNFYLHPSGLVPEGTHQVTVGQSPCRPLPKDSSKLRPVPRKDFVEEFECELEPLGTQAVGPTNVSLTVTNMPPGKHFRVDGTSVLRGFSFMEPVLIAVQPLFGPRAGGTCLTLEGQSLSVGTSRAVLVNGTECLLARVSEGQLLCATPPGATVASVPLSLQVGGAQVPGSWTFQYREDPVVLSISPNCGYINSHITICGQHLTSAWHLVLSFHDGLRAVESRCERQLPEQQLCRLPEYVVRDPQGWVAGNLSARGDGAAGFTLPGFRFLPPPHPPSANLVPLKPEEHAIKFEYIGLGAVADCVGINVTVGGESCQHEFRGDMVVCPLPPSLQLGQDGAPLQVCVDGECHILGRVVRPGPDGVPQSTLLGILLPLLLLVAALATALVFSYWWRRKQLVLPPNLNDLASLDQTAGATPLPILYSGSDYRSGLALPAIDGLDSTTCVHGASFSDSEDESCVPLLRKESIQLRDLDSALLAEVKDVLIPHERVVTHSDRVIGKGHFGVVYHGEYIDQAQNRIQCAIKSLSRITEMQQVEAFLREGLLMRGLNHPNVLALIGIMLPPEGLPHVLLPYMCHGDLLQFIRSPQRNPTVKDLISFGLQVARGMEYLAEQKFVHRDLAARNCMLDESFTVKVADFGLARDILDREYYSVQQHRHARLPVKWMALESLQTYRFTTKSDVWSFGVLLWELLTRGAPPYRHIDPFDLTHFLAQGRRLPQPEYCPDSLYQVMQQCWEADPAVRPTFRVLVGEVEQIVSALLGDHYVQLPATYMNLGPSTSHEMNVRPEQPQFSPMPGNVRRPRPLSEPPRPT
T3 sequence (Q9UIK4 whole entry): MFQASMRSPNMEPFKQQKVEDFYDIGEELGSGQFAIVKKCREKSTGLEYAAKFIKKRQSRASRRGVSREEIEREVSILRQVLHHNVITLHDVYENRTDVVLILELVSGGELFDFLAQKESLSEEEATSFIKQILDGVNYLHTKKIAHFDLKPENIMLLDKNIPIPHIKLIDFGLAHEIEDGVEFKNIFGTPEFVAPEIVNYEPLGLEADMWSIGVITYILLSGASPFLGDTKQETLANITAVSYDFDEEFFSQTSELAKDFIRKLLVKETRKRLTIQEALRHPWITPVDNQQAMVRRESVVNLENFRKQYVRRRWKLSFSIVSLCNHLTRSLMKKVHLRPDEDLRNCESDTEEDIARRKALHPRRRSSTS

Regarding `COc1cc(C(=O)N2CCC(N3CCN(C)CC3)CC2)ccc1Nc1ncc2c(n1)N(C)c1ccccc1C(=O)N2C` [15 (LRRK2-IN-1)], at panel of 442 kinases [1], the “KINOMEscan: MST1R” value is listed as 98. Also, the “KINOMEscan: CDKL5” value at panel of 442 kinases [2] turned out to be 100. The “KINOMEscan: DAPK2” value at panel of 442 kinases [3] came to 67.
In the case of `COc1cc(C(=O)N2CCC(N3CCN(C)CC3)CC2)ccc1Nc1ncc2c(n1)N1CCc3cccc(c31)C(=O)N2C` [Compound 24], the “KINOMEscan: DAPK2” value at panel of 442 kinases [3] is given as 22.
Take `COc1cc(C(=O)N2CCC(N3CCN(C)CC3)CC2)ccc1Nc1ncc2c(n1)N(C1CCCC1)c1ccccc1C(=O)N2C` [Compound 25, 11-cyclopentyl-2-((2-methoxy-4-(4-(4-methylpiperazin-1-yl)piperidine-1-carbonyl)phenyl)amino)-5-methyl-5H-benzo[e]pyrimido[5,4-b][1,4]diazepin-6(11H)-one]: on panel of 442 kinases [1], the “KINOMEscan: MST1R” value is given as 100. For the same compound, the “KINOMEscan: CDKL5” value on panel of 442 kinases [2] was determined as 93. Moreover, the “KINOMEscan: DAPK2” value at panel of 442 kinases [3] came out at 90.
On the same counts, the results for `CCOc1cc(C(=O)N2CCC(N3CCN(C)CC3)CC2)ccc1Nc1ncc2c(n1)N(C1CCCC1)c1ccccc1C(=O)N2C` [Compound 26] are 100, 100 and 99.
